Earlier results, collected in US20200386739A1, “TREATMENT OF METAHNOGENIC BACTERIA AS A THERAPY FOR CHRONIC LUNG DISEASE” (priority 2019, published 2020).
Positions of bridges follow the written chain, without caps; N, C: chain ends. Non-standard residues stand in square brackets, D forms with d. Residues, ends and D or L forms follow the SMILES beside them. *: point of attachment. Ileψ(thiazoline)Cys = CC[C@H](C)[C@H](N)C1=N[C@H](C(=O)*)CS1; dOrn = NCCC[C@@H](N)C(=O)O

Columns and labels:
[1] = test system: guinea pig muscle strips from the ileum
[2] = test system: methane producing patients with IBS-C and chronic constipation
Methanogens = conditions: cell wall lacks peptidoglycan
small intestine of dogs = conditions: in vivo infusion of methane into the small intestine of dogs; scintigraphy
guinea pig ileum = guinea pig ileum exposed to methane

**Q.** For `CN1[C@@H]2CC[C@H]1C[C@@H](OC(=O)C(CO)c1ccccc1)C2` (some centres unmarked) [atropine], which “effect on the methane-induced increase of contractile amplitude” value [1] is on record?
**A.** reduced

**Q.** For `CO[C@H]1/C=C/O[C@@]2(C)Oc3c(C)c(O)c4c(O)c(c5c(nc6cc(C)ccn65)c4c3C2=O)NC(=O)/C(C)=C\C=C\[C@H](C)[C@H](O)[C@@H](C)[C@@H](O)[C@@H](C)[C@H](OC(C)=O)[C@@H]1C` [rifaximin], which “colonic transit time and constipation symptoms” value [2] is on record?
**A.** improvement

**Q.** And the methane production [2]?
**A.** reduced

**Q.** With `CC[C@H](C)[C@H](N)C1=N[C@H](C(=O)N[C@@H](CC(C)C)C(=O)N[C@H](CCC(=O)O)C(=O)N[C@H](C(=O)N[C@H]2CCCCNC(=O)[C@H](CC(N)=O)NC(=O)[C@@H](CC(=O)O)NC(=O)[C@H](Cc3cnc[nH]3)NC(=O)[C@@H](Cc3ccccc3)NC(=O)[C@H]([C@@H](C)CC)NC(=O)[C@@H](CCCN)NC2=O)[C@@H](C)CC)CS1` [bacitracin] ({Ileψ(thiazoline)Cys}-L[dE]IK[dOrn]I[dF]H[dD]N; lactam 4-C) as the compound, how does the susceptibility of methanogens (Methanogens) read?
**A.** susceptible

**Q.** Which susceptibility of methanogens (Methanogens) does the source give for `O=C(N[C@H](CO)[C@H](O)c1ccc([N+](=O)[O-])cc1)C(Cl)Cl` [chloramphenicol] here?
**A.** susceptible

**Q.** Which “slowing of small intestinal transit time” value (small intestine of dogs) does the source give for `C` [methane] here?
**A.** 59%

**Q.** And the amplitude of contractions (guinea pig ileum)?
**A.** increased

**Q.** What about the “area under the curve (AUC) of intraluminal pressure” value (guinea pig ileum) of the same compound?
**A.** increased

**Q.** And the peristaltic velocity (guinea pig ileum)?
**A.** significantly decreased

**Q.** And the contractile amplitude ([1]; methane infusion, ileum muscle strips)?
**A.** increased

**Q.** For `NC1=N[C@H](O)[C@H]2[C@H]3O[C@]4(O)O[C@@H]([C@@H](O)[C@@]2(N1)[C@@H]4O)[C@]3(O)CO` [tetrodotoxin], which “effect on the methane-induced increase of contractile amplitude” value [1] is on record?
**A.** blocked
